# Test results from patent US20260130395A1, “Water Dispersible Botanical Compositions” (Aquila Black Limited, priority 2021, published 2026).
# Experiment: Stability of cannabinoid compounds and Vitamin E components in Beverage 1 (AB White) by LCMSMS
# Assay type: physicochemical
# Conditions: for Stability of Plant-Derived Cannabinoid Compounds in AB White, 8° C.: AB White stored at 8° C.; for Stability of Plant-Derived Cannabinoid Compounds in AB White, 21-25° C.: AB White stored at 21-25° C.
# Procedure: The stability of the plant-derived cannabinoid compounds and Vitamin E components of the beverage stored 8° C. and at room temperature (21-25° C.) were monitored, over a period of 570 days via Liquid Chromatography-tandem Mass Spectrometry [LCMSMS, Agilent 6590, C18, 3×50 mm, 2.7 m (Agilent InfinityLab Poroshell 120 EC-C18), Electrospray Ionization detector]. The LCMSMS was calibrated for 0-1000 ng/ml cannabinoids with the same resin material used in the preparation of the concentrates. At each time period, 100 ml of beverage was diluted with 10 ml of methanol and injected into the LCMSMS for analysis.
smiles,measurement,setting,value
"CCCCCc1cc(O)c2c(c1)OC(C)(C)c1ccc(C)cc1-2 [CBN, cannabinol]","Stability of Plant-Derived Cannabinoid Compounds in AB White, 8° C.",0 days,2.79 µg/mL
same,"Stability of Plant-Derived Cannabinoid Compounds in AB White, 8° C.",1 days,2.77 µg/mL
same,"Stability of Plant-Derived Cannabinoid Compounds in AB White, 8° C.",2 days,2.72 µg/mL
same,"Stability of Plant-Derived Cannabinoid Compounds in AB White, 8° C.",3 days,2.73 µg/mL
same,"Stability of Plant-Derived Cannabinoid Compounds in AB White, 8° C.",5 days,2.76 µg/mL
same,"Stability of Plant-Derived Cannabinoid Compounds in AB White, 8° C.",8 days,2.75 µg/mL
same,"Stability of Plant-Derived Cannabinoid Compounds in AB White, 8° C.",9 days,2.76 µg/mL
same,"Stability of Plant-Derived Cannabinoid Compounds in AB White, 8° C.",10 days,2.79 µg/mL
same,"Stability of Plant-Derived Cannabinoid Compounds in AB White, 8° C.",11 days,2.71 µg/mL
same,"Stability of Plant-Derived Cannabinoid Compounds in AB White, 8° C.",12 days,2.80 µg/mL
same,"Stability of Plant-Derived Cannabinoid Compounds in AB White, 8° C.",15 days,2.79 µg/mL
same,"Stability of Plant-Derived Cannabinoid Compounds in AB White, 8° C.",16 days,2.77 µg/mL
same,"Stability of Plant-Derived Cannabinoid Compounds in AB White, 8° C.",17 days,2.82 µg/mL
same,"Stability of Plant-Derived Cannabinoid Compounds in AB White, 8° C.",18 days,2.71 µg/mL
same,"Stability of Plant-Derived Cannabinoid Compounds in AB White, 8° C.",19 days,2.71 µg/mL
same,"Stability of Plant-Derived Cannabinoid Compounds in AB White, 8° C.",22 days,2.76 µg/mL
same,"Stability of Plant-Derived Cannabinoid Compounds in AB White, 8° C.",23 days,2.71 µg/mL
same,"Stability of Plant-Derived Cannabinoid Compounds in AB White, 8° C.",24 days,2.75 µg/mL
same,"Stability of Plant-Derived Cannabinoid Compounds in AB White, 8° C.",25 days,2.75 µg/mL
same,"Stability of Plant-Derived Cannabinoid Compounds in AB White, 8° C.",26 days,2.76 µg/mL
same,"Stability of Plant-Derived Cannabinoid Compounds in AB White, 8° C.",29 days,2.76 µg/mL
same,"Stability of Plant-Derived Cannabinoid Compounds in AB White, 8° C.",30 days,2.78 µg/mL
same,"Stability of Plant-Derived Cannabinoid Compounds in AB White, 8° C.",60 days,2.68 µg/mL
same,"Stability of Plant-Derived Cannabinoid Compounds in AB White, 8° C.",90 days,2.74 µg/mL
same,"Stability of Plant-Derived Cannabinoid Compounds in AB White, 8° C.",120 days,2.72 µg/mL
same,"Stability of Plant-Derived Cannabinoid Compounds in AB White, 8° C.",150 days,2.69 µg/mL
same,"Stability of Plant-Derived Cannabinoid Compounds in AB White, 8° C.",180 days,2.77 µg/mL
same,"Stability of Plant-Derived Cannabinoid Compounds in AB White, 8° C.",210 days,2.75 µg/mL
same,"Stability of Plant-Derived Cannabinoid Compounds in AB White, 8° C.",240 days,2.70 µg/mL
same,"Stability of Plant-Derived Cannabinoid Compounds in AB White, 8° C.",270 days,2.75 µg/mL
same,"Stability of Plant-Derived Cannabinoid Compounds in AB White, 8° C.",300 days,2.71 µg/mL
same,"Stability of Plant-Derived Cannabinoid Compounds in AB White, 8° C.",330 days,2.75 µg/mL
same,"Stability of Plant-Derived Cannabinoid Compounds in AB White, 8° C.",360 days,2.68 µg/mL
same,"Stability of Plant-Derived Cannabinoid Compounds in AB White, 8° C.",390 days,2.67 µg/mL
same,"Stability of Plant-Derived Cannabinoid Compounds in AB White, 8° C.",420 days,2.70 µg/mL
same,"Stability of Plant-Derived Cannabinoid Compounds in AB White, 8° C.",450 days,2.70 µg/mL
same,"Stability of Plant-Derived Cannabinoid Compounds in AB White, 8° C.",480 days,2.66 µg/mL
same,"Stability of Plant-Derived Cannabinoid Compounds in AB White, 8° C.",510 days,2.60 µg/mL
same,"Stability of Plant-Derived Cannabinoid Compounds in AB White, 8° C.",540 days,2.56 µg/mL
same,"Stability of Plant-Derived Cannabinoid Compounds in AB White, 8° C.",570 days,2.56 µg/mL
same,"Stability of Plant-Derived Cannabinoid Compounds in AB White, 21-25° C.",0 days,2.79 µg/mL
same,"Stability of Plant-Derived Cannabinoid Compounds in AB White, 21-25° C.",1 days,2.79 µg/mL
same,"Stability of Plant-Derived Cannabinoid Compounds in AB White, 21-25° C.",2 days,2.81 µg/mL
same,"Stability of Plant-Derived Cannabinoid Compounds in AB White, 21-25° C.",3 days,2.73 µg/mL
same,"Stability of Plant-Derived Cannabinoid Compounds in AB White, 21-25° C.",5 days,2.80 µg/mL
same,"Stability of Plant-Derived Cannabinoid Compounds in AB White, 21-25° C.",8 days,2.71 µg/mL
same,"Stability of Plant-Derived Cannabinoid Compounds in AB White, 21-25° C.",9 days,2.78 µg/mL
same,"Stability of Plant-Derived Cannabinoid Compounds in AB White, 21-25° C.",10 days,2.77 µg/mL
same,"Stability of Plant-Derived Cannabinoid Compounds in AB White, 21-25° C.",11 days,2.80 µg/mL
same,"Stability of Plant-Derived Cannabinoid Compounds in AB White, 21-25° C.",12 days,2.75 µg/mL
same,"Stability of Plant-Derived Cannabinoid Compounds in AB White, 21-25° C.",15 days,2.81 µg/mL
same,"Stability of Plant-Derived Cannabinoid Compounds in AB White, 21-25° C.",16 days,2.75 µg/mL
same,"Stability of Plant-Derived Cannabinoid Compounds in AB White, 21-25° C.",17 days,2.70 µg/mL
same,"Stability of Plant-Derived Cannabinoid Compounds in AB White, 21-25° C.",18 days,2.78 µg/mL
same,"Stability of Plant-Derived Cannabinoid Compounds in AB White, 21-25° C.",19 days,2.73 µg/mL
same,"Stability of Plant-Derived Cannabinoid Compounds in AB White, 21-25° C.",22 days,2.69 µg/mL
same,"Stability of Plant-Derived Cannabinoid Compounds in AB White, 21-25° C.",23 days,2.68 µg/mL
same,"Stability of Plant-Derived Cannabinoid Compounds in AB White, 21-25° C.",24 days,2.79 µg/mL
same,"Stability of Plant-Derived Cannabinoid Compounds in AB White, 21-25° C.",25 days,2.75 µg/mL
same,"Stability of Plant-Derived Cannabinoid Compounds in AB White, 21-25° C.",26 days,2.69 µg/mL
same,"Stability of Plant-Derived Cannabinoid Compounds in AB White, 21-25° C.",29 days,2.75 µg/mL
same,"Stability of Plant-Derived Cannabinoid Compounds in AB White, 21-25° C.",30 days,2.72 µg/mL
same,"Stability of Plant-Derived Cannabinoid Compounds in AB White, 21-25° C.",60 days,2.63 µg/mL
same,"Stability of Plant-Derived Cannabinoid Compounds in AB White, 21-25° C.",90 days,2.66 µg/mL
same,"Stability of Plant-Derived Cannabinoid Compounds in AB White, 21-25° C.",120 days,2.67 µg/mL
same,"Stability of Plant-Derived Cannabinoid Compounds in AB White, 21-25° C.",150 days,2.77 µg/mL
same,"Stability of Plant-Derived Cannabinoid Compounds in AB White, 21-25° C.",180 days,2.68 µg/mL
same,"Stability of Plant-Derived Cannabinoid Compounds in AB White, 21-25° C.",210 days,2.74 µg/mL
same,"Stability of Plant-Derived Cannabinoid Compounds in AB White, 21-25° C.",240 days,2.71 µg/mL
same,"Stability of Plant-Derived Cannabinoid Compounds in AB White, 21-25° C.",270 days,2.67 µg/mL
same,"Stability of Plant-Derived Cannabinoid Compounds in AB White, 21-25° C.",300 days,2.73 µg/mL
same,"Stability of Plant-Derived Cannabinoid Compounds in AB White, 21-25° C.",330 days,2.75 µg/mL
same,"Stability of Plant-Derived Cannabinoid Compounds in AB White, 21-25° C.",360 days,2.67 µg/mL
same,"Stability of Plant-Derived Cannabinoid Compounds in AB White, 21-25° C.",390 days,2.66 µg/mL
same,"Stability of Plant-Derived Cannabinoid Compounds in AB White, 21-25° C.",420 days,2.62 µg/mL
same,"Stability of Plant-Derived Cannabinoid Compounds in AB White, 21-25° C.",450 days,2.61 µg/mL
same,"Stability of Plant-Derived Cannabinoid Compounds in AB White, 21-25° C.",480 days,2.57 µg/mL
same,"Stability of Plant-Derived Cannabinoid Compounds in AB White, 21-25° C.",510 days,2.66 µg/mL
same,"Stability of Plant-Derived Cannabinoid Compounds in AB White, 21-25° C.",540 days,2.63 µg/mL
same,"Stability of Plant-Derived Cannabinoid Compounds in AB White, 21-25° C.",570 days,2.56 µg/mL
